We go through five compounds from paper PMC11003488 (Journal of Enzyme Inhibition and Medicinal Chemistry, 2023).

Data set [1] concerns MCF7. As to the kind of experiment: NCI-60 SRB growth inhibition, one-dose and five-dose. The data set is classed as cell-based. The note with it: Homo sapiens; for inhibition at 10 µM: MCF7, read-out: percent growth inhibition.
The test system of data set [2] is OVCAR-3. The description is as above. The format is cell-based. The settings on record: Homo sapiens; for inhibition at 10 µM: OVCAR-3, read-out: percent growth inhibition.
For data set [3], the system named is NCI 60-cell line panel (full panel). As to the kind of experiment: NCI-60 SRB growth inhibition, full panel mean / MG-MID. The data set is classed as cell-based, human. The settings on record: for Full panel Mean GI %: mean over NCI-60 panel, single dose 10 µM.
In data set [4] the test system is CAKI-1. As to the kind of experiment: NCI-60 SRB growth inhibition, one-dose and five-dose. The data set is classed as cell-based. The settings on record: Homo sapiens; for inhibition at 10 µM: CAKI-1, read-out: percent growth inhibition.
In data set [5] the test system is HCC-2998. The description is as above. The data set is classed as cell-based. The note with it: Homo sapiens; for inhibition at 10 µM: HCC 2998, read-out: percent growth inhibition.
For data set [6], the system named is T-47D. Described as above. The data set is classed as cell-based. The settings on record: Homo sapiens, T47D; for inhibition at 10 µM: read-out: percent growth inhibition.
Data set [7] relates to KM12. The description is as above. The format is cell-based. The settings on record: Homo sapiens; for inhibition at 10 µM: KM12, read-out: percent growth inhibition.
The subject of data set [8] is HCT-116. The description is as above. The data set is classed as cell-based. The settings on record: Homo sapiens; for inhibition at 10 µM: HCT-116, read-out: percent growth inhibition.
Data set [9] relates to EKVX. The data set is described as above. The data set is classed as cell-based. The note with it: Homo sapiens; for inhibition at 10 µM: read-out: percent growth inhibition.
For data set [10], the system named is NCI-H23. The data set is described as above. The data set is classed as cell-based. The note with it: Homo sapiens; for inhibition at 10 µM: NCI-H23, read-out: percent growth inhibition.
The test system of data set [11] is RPMI-8226. Described as above. The format is cell-based. The note with it: Homo sapiens; for inhibition at 10 µM: RPMI-8226, read-out: percent growth inhibition.
The subject of data set [12] is UACC-257. Described as above. The note with it: Homo sapiens; for inhibition at 10 µM: UACC-257, read-out: percent growth inhibition. The format is cell-based.
Data set [13] concerns SN12C. Described as above. The data set is classed as cell-based. The note with it: Homo sapiens; for inhibition at 10 µM: read-out: percent growth inhibition.
Data set [14] relates to OVCAR-8. Described as above. The data set is classed as cell-based. The note with it: Homo sapiens, OVCAR-8, read-out: percent growth inhibition.
The subject of data set [15] is ACHN. The description is as above. The format is cell-based. The note with it: Homo sapiens; for inhibition at 10 µM: read-out: percent growth inhibition.
For data set [16], the system named is HCT-15. Described as above. The format is cell-based. The settings on record: Homo sapiens; for inhibition at 10 µM: HCT-15, read-out: percent growth inhibition.
Data set [17] relates to Leukaemia cell lines. As to the kind of experiment: NCI-60 SRB growth inhibition, subpanel. The format is cell-based, human. The settings on record: Homo sapiens, read-out: GI50 MG-MID.
Data set [18] has as its system Ovarian cancer cell lines. As to the kind of experiment: NCI-60 SRB growth inhibition, subpanel. The format is cell-based, human. The note with it: Homo sapiens, read-out: GI50 MG-MID.
The test system of data set [19] is UO-31. As to the kind of experiment: NCI-60 SRB growth inhibition, one-dose and five-dose. The format is cell-based. The note with it: Homo sapiens, UO-31.
Data set [20] in a line: Cytotoxicity towards normal fibroblasts, safety index. The data set is classed as cell-based, human. The settings on record: human, WI-38 normal fibroblast cells.
The test system of data set [21] is WI-38 normal human fibroblast cells. The data set is described as above. The data set is classed as cell-based. The note with it: WI-38 versus cancer cell lines.
Data set [22] has as its system Melanoma cell lines. As to the kind of experiment: NCI-60 SRB growth inhibition, subpanel. The note with it: Homo sapiens, read-out: GI50 MG-MID. The data set is classed as cell-based, human.
The test system of data set [23] is MDA-MB-231/ATCC. As to the kind of experiment: NCI-60 SRB growth inhibition, one-dose and five-dose. The settings on record: Homo sapiens, MDA-MB-231. The data set is classed as cell-based.
Data set [24] has as its system Renal cancer cell lines. As to the kind of experiment: NCI-60 SRB growth inhibition, subpanel. The data set is classed as cell-based, human. The note with it: Homo sapiens, read-out: GI50 MG-MID.
In data set [25] the test system is Prostate cancer cell lines. As to the kind of experiment: NCI-60 SRB growth inhibition, subpanel. The settings on record: Homo sapiens, read-out: GI50 MG-MID. The format is cell-based, human.
The test system of data set [26] is CNS cancer cell lines. As to the kind of experiment: NCI-60 SRB growth inhibition, subpanel. The format is cell-based, human. The note with it: Homo sapiens, read-out: GI50 MG-MID.
Data set [27] has as its system NSCLC cell lines. As to the kind of experiment: NCI-60 SRB growth inhibition, subpanel. The settings on record: Homo sapiens, read-out: GI50 MG-MID. The data set is classed as cell-based, human.
Data set [28] deals with Human VEGFR-2 (Homo sapiens, UniProt P35968). As to the kind of experiment: VEGFR-2 inhibition assay. The format is biochemical.
Data set [29] relates to SK-MEL-2. As to the kind of experiment: NCI-60 SRB growth inhibition, one-dose and five-dose. The format is cell-based. The note with it: Homo sapiens, SK-MEL-2, read-out: percent growth inhibition.
The test system of data set [30] is Breast cancer cell lines. As to the kind of experiment: NCI-60 SRB growth inhibition, subpanel. The data set is classed as cell-based, human. The note with it: Homo sapiens, read-out: GI50 MG-MID.
Data set [31] has as its system Colon cancer cell lines. As to the kind of experiment: NCI-60 SRB growth inhibition, subpanel. The format is cell-based, human. The note with it: Homo sapiens, read-out: GI50 MG-MID.

Sequence of Human VEGFR-2 (P35968 20-1356): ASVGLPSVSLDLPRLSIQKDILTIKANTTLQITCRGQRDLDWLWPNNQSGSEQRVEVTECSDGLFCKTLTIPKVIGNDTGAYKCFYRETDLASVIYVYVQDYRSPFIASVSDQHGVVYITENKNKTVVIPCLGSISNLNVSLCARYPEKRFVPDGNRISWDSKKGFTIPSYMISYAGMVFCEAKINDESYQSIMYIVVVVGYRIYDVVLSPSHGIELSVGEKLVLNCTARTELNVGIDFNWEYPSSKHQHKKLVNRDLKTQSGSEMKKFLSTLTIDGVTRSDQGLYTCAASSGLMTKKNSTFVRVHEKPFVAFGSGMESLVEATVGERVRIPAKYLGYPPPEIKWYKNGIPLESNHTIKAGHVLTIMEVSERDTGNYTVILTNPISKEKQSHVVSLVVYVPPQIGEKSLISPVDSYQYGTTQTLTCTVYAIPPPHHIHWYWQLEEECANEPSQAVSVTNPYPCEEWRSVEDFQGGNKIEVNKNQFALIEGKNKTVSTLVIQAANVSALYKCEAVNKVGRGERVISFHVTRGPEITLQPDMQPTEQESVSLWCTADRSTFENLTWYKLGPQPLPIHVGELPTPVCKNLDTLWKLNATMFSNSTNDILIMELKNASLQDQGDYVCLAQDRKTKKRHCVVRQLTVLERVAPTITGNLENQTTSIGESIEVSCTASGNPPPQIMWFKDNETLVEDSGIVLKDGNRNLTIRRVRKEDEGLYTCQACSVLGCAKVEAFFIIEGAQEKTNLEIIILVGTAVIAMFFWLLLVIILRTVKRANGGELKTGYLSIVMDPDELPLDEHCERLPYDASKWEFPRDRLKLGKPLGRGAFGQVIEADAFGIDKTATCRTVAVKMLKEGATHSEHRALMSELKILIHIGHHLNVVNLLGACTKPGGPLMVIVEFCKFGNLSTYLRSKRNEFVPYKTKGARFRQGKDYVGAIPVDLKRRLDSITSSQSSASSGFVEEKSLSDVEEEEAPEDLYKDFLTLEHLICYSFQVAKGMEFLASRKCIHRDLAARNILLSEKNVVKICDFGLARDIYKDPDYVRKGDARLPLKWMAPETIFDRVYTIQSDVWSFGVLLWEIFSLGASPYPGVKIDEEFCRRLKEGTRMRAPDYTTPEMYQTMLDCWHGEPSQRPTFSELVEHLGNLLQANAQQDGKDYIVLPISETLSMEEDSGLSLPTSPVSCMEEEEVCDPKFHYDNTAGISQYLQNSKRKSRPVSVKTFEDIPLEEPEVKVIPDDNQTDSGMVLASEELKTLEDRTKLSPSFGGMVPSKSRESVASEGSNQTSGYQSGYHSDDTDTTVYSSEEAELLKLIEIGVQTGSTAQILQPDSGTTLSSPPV

What is called inhibition is the relative decrease from the control value, in per cent. For `O=C(/C=C/c1c[nH]cn1)c1cccc(NCc2ccc3oc(=O)ccc3c2)c1` [Compound 5n, (E)-6-(((3–(3-(1H-imidazol-4-yl)acryloyl)phenyl)amino)methyl)-2H-chromen-2-one], the inhibition at 10 µM in data set [1] worked out at 90.1%; in [2], 13.8%; in data set [4] it was 8.01%; in [5], 16.8%; in [6], 54%; in [7] it was 25.1%. In addition, the inhibition at 10 µM in [8] was found to be 58.1%; in data set [9], 45.6%; in data set [10], 28.3%; in [11], 86.9%; in data set [12], 43.6%; in data set [13] it was 29.8%. Besides, the inhibition at 10 µM in data set [14] was 32.5%; in data set [15], 24.8%; in [16], 33.9%. Besides, the “Full panel Mean GI %” value in data set [3] amounted to 37.53%.
One may read the GI50 as the concentration at which growth is held to half of that of the control. A word on the IC50: it is the point on the concentration scale where inhibition reaches its midpoint. A high value points to weaker potency in that assay. On to `CC(=O)Nc1ccc(/C=C/C(=O)c2cccc(NCc3ccc(NC(C)=O)cc3)c2)cc1` [Compound 5g, (E)-N-(4–(3-(3-((4-acetamidobenzyl)amino)phenyl)-3-oxoprop-1-en-1-yl)phenyl) acetamide], for which the GI50 in data set [17] turned out to be 3.87 µM; in data set [1] (MCF7) it was 2.88 µM; in [2] (OVCAR-3), 6.09 µM; in data set [3] (Homo sapiens, 60 cell, read-out: Full panel GI50 mean), 9.52 µM; in data set [4] (CAKI-1), 12.2 µM; in data set [5] (HCC 2998), 14.8 µM. The GI50 in data set [18] came to 11.8 µM; in data set [6] it was 7.77 µM; in data set [19], 10.8 µM; in [7] (KM12), 13.4 µM; in data set [8] (HCT-116, HCT-116, five-dose screening) it was 1.95 µM; in data set [22], 9.64 µM. Moreover, the GI50 in data set [23] was found to be 4.56 µM; in data set [9], 13.5 µM; in data set [24], 10.7 µM; in data set [10] (NCI-H23) it was 14.4 µM; in data set [25] it was 11.7 µM; in data set [26], 9.95 µM. In addition, the GI50 in data set [27] amounted to 12.2 µM; in data set [11] (RPMI-8226), 3.02 µM; in [12] (UACC-257), 12.5 µM; in data set [13], 4.82 µM; in [30], 7.7 µM; in data set [15], 5.1 µM. Further, the concentration for 50% growth inhibition (GI50) in data set [16] (HCT-15) amounted to 3.13 µM; in data set [31] it was 8.13 µM. The inhibition at 10 µM in [1] was found to be 107%; in data set [2], 118%; in data set [4] it was 54.9%; in data set [5] it was 137%; in [6], 46.4%; in [7], 163%. Moreover, the inhibition at 10 µM in data set [8] was 190%; in data set [9], 43.7%; in data set [10], 55.1%; in [11], 130%; in [29], 28.3%; in [12], 51.1%. The inhibition at 10 µM in [13] was determined as 87%; in data set [14], 129%; in [15] it was 105%; in data set [16] it was 144%. Moreover, the “Full panel Mean GI %” value in data set [3] was determined as 87.48%. The GI50 at 48 h in data set [20] was > 100 µM. In addition, in data set [21], the Safety index was >1. This compound yielded an IC50 in data set [28] of 0.47 ± 0.013 µM.
On to `CC(=O)Nc1ccc(CNc2cccc(C(=O)/C=C/c3c[nH]cn3)c2)cc1` [Compound 5l, (E)-N-(4-(((3–(3-(1H-imidazol-4-yl)acryloyl)phenyl)amino)methyl)phenyl)acetamide], for which the inhibition at 10 µM was 81.8% in data set [1]; 33.8% in [2]; 12.4% in [4]; -2.31% in [5]; 56.9% in data set [6]; 43.6% in data set [7]. The inhibition at 10 µM in data set [8] was 29.4%; in data set [9], 24.8%; in [10] it was 11.5%; in [11], 38%; in [29] it was 12.8%; in [12], 19.3%. Also, the inhibition at 10 µM worked out at 19.8% in [13], 8.86% in data set [14], 15.4% in data set [15] and 14.3% in data set [16]. In data set [3], the “Full panel Mean GI %” value amounted to 24.10%.
Turning to `O=C(/C=C/c1c[nH]cn1)c1cccc(NCc2ccc(CO)cc2)c1` [Compound 5m, (E)-1–(3-((4-(hydroxymethyl)benzyl)amino)phenyl)-3-(1H-imidazol-4-yl)prop-2-en-1-one], the inhibition at 10 µM in data set [1] was 66%; in data set [2] it was 5.3%; in [4], 8.35%; in data set [5], -0.68%; in [6], 47.8%; in data set [7] it was 9.57%. Further, the inhibition at 10 µM in [8] worked out at 36.5%; in data set [9], 32.2%; in data set [10] it was 18.6%; in data set [11] it was 63.3%; in data set [12], 22.5%; in data set [13], 19.9%. Further, the inhibition at 10 µM came to 15.4% in [14], 16.6% in data set [15] and 21.5% in [16]. Moreover, the “Full panel Mean GI %” value in data set [3] was determined as 25.19%.
Turning to `CC(=O)Nc1ccc(/C=C/C(=O)c2cccc(NCc3ccc4oc(=O)ccc4c3)c2)cc1` [Compound 5k, (E)-N-(4–(3-oxo-3–(3-(((2-oxo-2H-chromen-6-yl)methyl)amino)phenyl)prop-1-en-1-yl)phenyl)acetamide], the inhibition at 10 µM in [1] amounted to 73.6%; in [2], 41.7%; in data set [4] it was 37.7%; in data set [5], 10%; in data set [6] it was 66%; in [7] it was 34.4%. For the same compound, the inhibition at 10 µM in data set [8] was found to be 78.8%; in [9], 64.5%; in data set [10], 38.6%; in [11] it was 80.5%; in data set [29], 35.7%; in data set [12], 45.1%. In addition, the inhibition at 10 µM in [13] came out at 29.5%; in data set [14], 34.9%; in data set [15], 34.7%; in [16] it was 50.7%. The “Full panel Mean GI %” value in data set [3] is on record as 39.00%.
